Laboratory results as given in US20250206761A1, “HALOINDOLE MACROCYCLIC COMPOUNDS FOR THE TREATMENT OF CANCER” (Hoffmann-La Roche Inc., priority 2022, published 2025).

Experiments:
[1] = test system: NCI-H358 (ATCC-CRL5807) cells; test: Cell viability assay, G12C (NCI-H358); type: cell-based, human; conditions: Homo sapiens; KRAS cell viability, NCI-H358, 72 hrs, Cell Counting Kit-8
Method: (§1) The purpose of this cellular assay was to determine the effects of test compounds on the proliferation of human cancer cell lines NCI-H358 (ATCC-CRL5807) cells, AGS (ATCC-CRL-1739) cells, SW620 (ATCC-CCL-227) over a 3-day treatment period by quantifying the amount of NADPH present at endpoint using Cell Counting Kit-8.
(§2) Cells were seeded at 5,000 cells/well (NCI-H358), 2,000 cells/well (AGS) 2,000 cells/well (SW620) in 96-well assay plates (Corning-3699) and incubated overnight. On the day of the assay, diluted compounds were then added in a final concentration of 0.5% DMSO. After 72 hrs incubation, a tenth of the volume of cell counting kit 8 (Dnjindo-CK04) was added into each well. Read the signal (OD450 minus OD650) using EnVision after 2 hrs incubation. IC50 was determined by fitting a 4-parameter sigmoidal concentration response model.

[2] = test system: AGS (ATCC-CRL-1739) cells; test: Cell viability assay, G12D (AGS); type: cell-based, human; conditions: Homo sapiens, KRAS cell viability, 72 hrs, Cell Counting Kit-8
Method: as §1, §2

SW620 (ATCC-CCL-227) = test: Cell viability assay, G12V (SW620); type: cell-based, human; conditions: Homo sapiens, SW-620; KRAS cell viability, SW620, 72 hrs, Cell Counting Kit-8
Method: as §1, §2

KRAS G12C-BRAF complex = KRAS G12C-BRAF complex (Homo sapiens (Human), UniProt P01116+P62937, G12C); test: KRAS-BRAF with CYPA (500 nM) interaction assay (TR-FRET), G12C; type: biochemical
KRAS G12C-BRAF complex, sequence (P01116-2 other isoform, or with tags, fused parts or gaps G12C): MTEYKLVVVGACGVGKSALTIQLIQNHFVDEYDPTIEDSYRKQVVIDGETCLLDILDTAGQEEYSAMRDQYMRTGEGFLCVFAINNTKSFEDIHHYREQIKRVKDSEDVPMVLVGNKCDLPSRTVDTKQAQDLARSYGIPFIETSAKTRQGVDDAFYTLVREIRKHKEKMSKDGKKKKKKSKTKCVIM
KRAS G12C-BRAF complex, sequence (P62937 whole entry): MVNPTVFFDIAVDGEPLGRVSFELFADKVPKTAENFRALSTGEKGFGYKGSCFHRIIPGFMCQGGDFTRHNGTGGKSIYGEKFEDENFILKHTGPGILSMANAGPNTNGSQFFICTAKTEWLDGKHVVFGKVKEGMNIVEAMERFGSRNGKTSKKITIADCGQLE
Method: (§3) In this example, TR-FRET was also used to measure the compound or compound-CYPA dependent disruption of the KRAS G12C-BRAF complex. This protocol was also used to measure disruption of KRAS G12D or KRAS G12V binding to BRAF by a compound of the invention, respectively. In assay buffer containing 25 mM HEPES PH=7.4 (4-(2-hydroxyethyl)-1-piperazineethanesulfonic acid, Thermo, 15630080), 0.002% Tween20, 0.1% BSA, 100 mM NaCl, 5 mM MgCl2, 10 μM GMPPNP (Guanosine 5′-[β,γ-imido]triphosphate trisodium salt hydrate, Sigma, G0635), […] 384-well assay plate at final concentrations of 50 nM, 6.25 nM and 1 nM, respectively. Compound was present in plate wells as a 16-point 3-fold dilution series starting at a final concentration of 10 μM and incubated for 3 hours. A mixture of MAb Anti-6His-XL665 (Cisbio, 61HISXLB) and Mab anti-GST-TB cryptate (Cisbio, 61GSTTLB) was then added at a final concentration of 6.67 nM and 0.21 nM, respectively, and the plate was incubated for an additional 1.5 hours. TR-FRET signal was read on a PHERstar FSX microplate reader (Ex320 nm, Em 665/615 nm). Compounds that facilitate disruption of the KRAS-BRAF complex were identified as those eliciting a decrease in the TR-FRET ratio relative to DMSO control wells.

[3] = target: KRAS G12D binding to BRAF (Homo sapiens (Human), UniProt P01116+P62937, G12D); test: KRAS-BRAF with CYPA (500 nM) interaction assay (TR-FRET), G12D; type: biochemical
KRAS G12D binding to BRAF, sequence (P01116-2 other isoform, or with tags, fused parts or gaps G12D): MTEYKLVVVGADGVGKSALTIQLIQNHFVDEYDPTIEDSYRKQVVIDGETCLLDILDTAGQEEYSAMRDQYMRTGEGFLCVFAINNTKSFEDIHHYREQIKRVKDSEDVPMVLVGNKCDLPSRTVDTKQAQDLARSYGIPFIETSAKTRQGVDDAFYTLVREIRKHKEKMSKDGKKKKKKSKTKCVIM
KRAS G12D binding to BRAF, sequence (P62937 whole entry): as the sequence (P62937 whole entry) above
Method: as §3

[4] = target: KRAS G12V binding to BRAF (Homo sapiens (Human), UniProt P01116+P62937, G12V); test: KRAS-BRAF with CYPA (500 nM) interaction assay (TR-FRET), G12V; type: biochemical
KRAS G12V binding to BRAF, sequence (P01116-2 other isoform, or with tags, fused parts or gaps G12V): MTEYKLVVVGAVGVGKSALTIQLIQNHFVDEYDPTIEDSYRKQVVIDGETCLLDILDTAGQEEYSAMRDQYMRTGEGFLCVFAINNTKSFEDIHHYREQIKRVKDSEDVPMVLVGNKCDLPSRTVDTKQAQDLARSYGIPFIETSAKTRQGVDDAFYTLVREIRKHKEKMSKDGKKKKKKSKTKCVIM
KRAS G12V binding to BRAF, sequence (P62937 whole entry): as the sequence (P62937 whole entry) above
Method: In this example, TR-FRET was also used to measure the compound or compound-CYPA dependent disruption of the KRAS G12C-BRAF complex. This protocol was also used to measure disruption of KRAS G12D or KRAS G12V binding to BRAF by a compound of the invention, respectively. In assay buffer containing 25 mM HEPES PH=7.4 (4-(2-hydroxyethyl)-1-piperazineethanesulfonic acid, Thermo, 15630080), 0.002% Tween20, 0.1% BSA, 100 mM NaCl, 5 mM MgCl2, 10 μM GMPPNP (Guanosine 5′-[β,γ-imido]triphosphate trisodium salt hydrate, Sigma, G0635), […], GMPPNP loaded 6His-KRAS proteins, and […], 6.25 nM and 1 nM, respectively. Compound was present in plate wells as a 16-point 3-fold dilution series starting at a final concentration of 10 μM and incubated for 3 hours. A mixture of MAb Anti-6His-XL665 (Cisbio, 61HISXLB) and Mab anti-GST-TB cryptate (Cisbio, 61GSTTLB) was then added at a final concentration of 6.67 nM and 0.21 nM, respectively, and the plate was incubated for an additional 1.5 hours. TR-FRET signal was read on a PHERstar FSX microplate reader (Ex320 nm, Em 665/615 nm). Compounds that facilitate disruption of the KRAS-BRAF complex were identified as those eliciting a decrease in the TR-FRET ratio relative to DMSO control wells.

[5] = test system: phosphorylation of ERK, KRAS G12C in NCJ-H358 cells; test: pERK inhibition assay, KRAS G12C; type: cell-based, human; conditions: Homo sapiens, 4 hours
Method: (§4) This assay is to measure the ability of test compounds in inhibiting the phosphorylation of ERK, the downstream signaling of KRAS G12C in NCJ-H358 cells, KRAS G12D in AGS cells, and KRAS G12V in SW620. NCJ-H358 (ATCC-CRL5807) cells, AGS (ATCC-CRL-1739) cells, SW620 (ATCC-CCL-227) cells were all grown and maintained using RPMI-1640 medium (Thermo Fisher Scientific) with 10% fetal bovine serum and 1% penicillin/streptomycin. On the day prior to compound addition, cells were plated in tissue culture-treated 96 well plates (Corning-3699) at a density of 30,000 cell/well, 20,000 cell/well, 30,000 cell/well for NCJ-H358, AGS and SW620 respectively, and allowed for attachment overnight. Diluted compounds were then added in a final concentration of 0.5% DMSO. After 4 hours of incubation, the medium was removed, 100 μL of 4% formaldehyde was added, and the assay plates were incubated at room temperature for 20 minutes. The plates were then washed once with phosphate buffered saline (PBS), and permeabilized with 100 μL of chilled methanol for 10 minutes. Non-specific antibody binding to the plates was blocked using 50 μL 1×BSA blocking buffer (Thermo-37520, 10-fold dilution by Phosphate-Buffered Saline Tween (PBST) for at least 1 hour at room temperature.
(§5) The amount of phosphor-ERK was determined using an antibody specific for phosphorylated form of ERK. Primary antibody (pERK, CST-4370, Cell Signaling Technology) was diluted 1:300 in blocking buffer, with 50 μL aliquoted to each well, and incubated overnight at 4′° C. Cells was washed five times for 5 minutes with PBST. Secondary antibody ([…] anti-rabbit IgG, CST-7074, Cell Signaling Technology) was diluted 1:1000 in blocking buffer, and 50 μL was added to each well and incubated 1-2 hrs at room temperature. Cells was washed 5 times for 5 minutes with PBST, 100 μL TMB ELISA substrate (abcam-ab171523) were added and gently shake for 20 minutes. 50 μL stop solution (abcam-ab171529) were added, and then read the signal (OD450) by EnVision.
(§6) IC50 was determined by fitting a 4-parameter sigmoidal concentration response model.

[6] = test system: phosphorylation of ERK, KRAS G12V in SW620; test: pERK inhibition assay, KRAS G12V; type: cell-based, human; conditions: Homo sapiens, SW-620, SW620, 4 hours
Method: as §4, §5, §6

Compound	IC50 [1]	IC50 [2]	IC50 (SW620 (ATCC-CCL-227))	IC50 (KRAS G12C-BRAF complex)	IC50 [3]	IC50 [4]	IC50 [5]	IC50 [6]
CO[C@@H](C)c1ncc(N2CCN(CC(F)(F)F)CC2)cc1-c1c2c3cc(c(F)cc3n1CC(F)(F)F)-c1csc(n1)C[C@H](NC(=O)[C@H](C(C)C)N1CCC3(CCN(C(=O)[C@H](F)Cl)CC3)C1=O)C(=O)N1CCC[C@H](N1)C(=O)OCC(C)(C)C2 (atropisomer, axis not shown; (M)) [Example 47, (2S)-2-[8-[(2R)-2-chloro-2-fluoro-acetyl]-1-oxo-2,8-diazaspiro[4.5]decan-2-yl]-N-[(7S,13S)-24-fluoro-(20M)-20-[2-[(1S)-1-methoxyethyl]-5-[4-(2,2,2-trifluoroethyl)piperazin-1-yl]-3-pyridyl]-17,17-dimethyl-8,14-dioxo-21-(2,2,2-trifluoroethyl)-15-oxa-4-thia-9,21,27,28-tetrazapentacyclo[17.5.2.1^2,5.1^9,13.0^22,26]octacosa-1(25),2,5(28),19,22(26),23-hexaen-7-yl]-3-methyl-butanamide]	30 nM	> 5000 nM	> 5000 nM	79 nM	> 10000 nM	> 10000 nM	26 nM	176 nM
CCn1c(-c2cc(N3CCN(CC(F)(F)F)CC3)cnc2[C@H](C)OC)c2c3cc(c(F)cc31)-c1csc(n1)C[C@H](NC(=O)[C@H](C(C)C)N1CC[C@@]3(CCN(C(=O)[C@H](F)Cl)C3)C1=O)C(=O)N1CCC[C@H](N1)C(=O)OCC(C)(C)C2 (atropisomer, axis not shown; (M)) [Example 35, (2S)-2-[(5R)-7-[(2R)-2-chloro-2-fluoro-acetyl]-1-oxo-2,7-diazaspiro[4.4]nonan-2-yl]-N-[(7S,13S)-21-ethyl-24-fluoro-(20M)-20-[2-[(1S)-1-methoxyethyl]-5-[4-(2,2,2-trifluoroethyl)piperazin-1-yl]-3-pyridyl]-17,17-dimethyl-8,14-dioxo-15-oxa-4-thia-9,21,27,28-tetrazapentacyclo[17.5.2.1^2,5.1^9,13.0^22,26]octacosa-1(25),2,5(28),19,22(26),23-hexaen-7-yl]-3-methyl-butanamide]	< 1 nM	69 nM	3530 nM	23 nM	3220 nM	> 10000 nM	3 nM	50 nM
CCn1c(-c2cc(N3CCN(C)CC3)cnc2[C@H](C)OC)c2c3cc(c(F)cc31)-c1csc(n1)C[C@H](NC(=O)[C@H](C(C)C)N(C)C(=O)C1(F)CCN(C(=O)[C@H](F)Cl)CC1)C(=O)N1CCC[C@H](N1)C(=O)OCC(C)(C)C2 (atropisomer, axis not shown; (M)) [Example 34, 1-[(2R)-2-chloro-2-fluoro-acetyl]-N-[(1S)-1-[[(7S,13S)-21-ethyl-24-fluoro-(20M)-20-[2-[(1S)-1-methoxyethyl]-5-(4-methylpiperazin-1-yl)-3-pyridyl]-17,17-dimethyl-8,14-dioxo-15-oxa-4-thia-9,21,27,28-tetrazapentacyclo[17.5.2.1^2,5.1^9,13.0^22,26]octacosa-1(25),2,5(28),19,22(26),23-hexaen-7-yl]carbamoyl]-2-methyl-propyl]-4-fluoro-N-methyl-piperidine-4-carboxamide]	< 1 nM	43 nM	40 nM	47 nM	909 nM	724 nM	2 nM	12 nM
CO[C@@H](C)c1ncc(N2CCN(CC(F)(F)F)CC2)cc1-c1c2c3cc(c(F)cc3n1CC(F)(F)F)-c1csc(n1)C[C@H](NC(=O)[C@H](C(C)C)N(C)C(=O)C1(F)CCN(C(=O)[C@H](F)Cl)CC1)C(=O)N1CCC[C@H](N1)C(=O)OCC(C)(C)C2 (atropisomer, axis not shown; (M)) [Example 44, 1-[(2R)-2-chloro-2-fluoro-acetyl]-4-fluoro-N-[(1S)-1-[[(7S,13S)-24-fluoro-(20M)-20-[2-[(1S)-1-methoxyethyl]-5-[4-(2,2,2-trifluoroethyl)piperazin-1-yl]-3-pyridyl]-17,17-dimethyl-8,14-dioxo-21-(2,2,2-trifluoroethyl)-15-oxa-4-thia-9,21,27,28-tetrazapentacyclo[17.5.2.1^2,5.1^9,13.0^22,26]octacosa-1(25),2,5(28),19,22(26),23-hexaen-7-yl]carbamoyl]-2-methyl-propyl]-N-methyl-piperidine-4-carboxamide]	< 1 nM	134 nM	> 5000 nM	34 nM	1340 nM	607 nM	10 nM	44 nM
